# Values quoted from earlier work, collected in US8951536B2, “N-hydroxyamidinoheterocycles as modulators of indoleamine 2,3-dioxygenase” (Incyte Corporation, priority 2005, dated 2015).
# Columns and labels:
# [1] = tested on: CD123-positive dendritic cells; conditions: mature and immature CD123-positive dendritic cells; Munn et al. 2002
# [2] = tested on: pregnant mice (carrying syngeneic or allogeneic fetuses); conditions: pregnant mice exposed to 1MT; Munn et al. 1998
# [3] = tested on: HeLa cells co-cultured with peripheral blood lymphocytes (PBLs); conditions: Logan et al. 2002
# [4] = tested on: P815 tumor; conditions: pre-immunized immune-competent mice; Uyttenhove et al.
# [5] = tested on: LLC tumors; conditions: LLC tumors in C57Bl/6 mice, versus placebo; Friberg et al.
# [6] = tested on: tumor growth in mice; conditions: Muller et al. 2005
SMILES,IDO suppressive activity on T-cell activity [1],rejection of allogeneic concepti [2],reduction in PBL proliferation upon treatment with IL2 [3],growth of tumors [4],formation of tumors [5],tumor growth with chemotherapeutic agents [6]
Cn1cc(C[C@H](N)C(=O)O)c2ccccc21 [1-methyl-tryptophan],blocked,"rapid, T cell-induced rejection of all allogeneic concept",reversed,,,
Cn1cc(CC(N)C(=O)O)c2ccccc21 (stereo not drawn) [Example 1-MT],,,,inhibited,markedly delayed,can synergize with chemotherapeutic agents to reduce tumor growth in mice
